Data from paper PMC4876719 (Cell chemical biology, 2016).

Molecular target: glutathione-S-transferase Pi 1 (GSTP1) (Homo sapiens, UniProt P09211)
Assay: CDNB-glutathione conjugation assay with pure GSTP1 after […] min pre-incubation
Format: biochemical

Sequence of glutathione-S-transferase Pi 1 (GSTP1) (P09211 2-210): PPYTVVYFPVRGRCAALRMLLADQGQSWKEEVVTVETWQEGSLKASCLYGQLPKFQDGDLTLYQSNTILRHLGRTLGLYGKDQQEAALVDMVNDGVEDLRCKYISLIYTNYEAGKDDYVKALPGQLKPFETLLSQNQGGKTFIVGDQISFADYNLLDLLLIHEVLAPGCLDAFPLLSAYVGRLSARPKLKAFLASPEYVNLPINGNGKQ

IC50: 500 nM
Substance: LAS17
